Test results: US20140194559A1, “Novel Inhibitor Compositions and Methods of Use” (NuFarm UK Limited, priority 2011, published 2014)

Tests used:
[1] = Solubility of antipolymerants in ethylbenzene; format: physicochemical; details: solvent ethylbenzene
Text: (§1) In order to highlight the increased antipolymerant content that can be achieved, the solubility of three antipolymerants in ethylbenzene, a widely used solvent for supplying antipolymerants for styrene monomer production, is compared with concentration when the antipolymerant is supplied as a SC. The comparative data for the antipolymerants are set out in Table 1.
Thus, it is clear that, for all three active components, the concentration achieved in the SC is far greater than that observed in ethylbenzene. The same concentration could also be obtained when two of the active components were combined in the SC. By contrast, combining more than one of the actives in ethylbenzene, the total concentration of actives was reduced. Thus, for a combination of 2,5-di-tert-butyl-p-benzoquinone and dibenzylhydroxylamine, the total concentration in ethylbenzene was <10 w/w %.

[2] = Maximum concentration of actives in suspension concentrate (SC); format: physicochemical; details: for Concentration in SC: maximum concentration of active in suspension concentrate
Experimental: To the liquid carrier (approximately 80% of the required amount) is added the required quantity of the dispersing agent and the mixture is stirred until a fully homogeneous solution is formed. Under high shear conditions, the desired amount of active inhibitor component is added to the dispersant solution and the formulation is stirred until it becomes completely homogeneous. The resulting dispersed active inhibitor is transferred to a bead mill where it is continuously milled until the required particle size distribution is obtained. Desirably, the particle size is less than 10 microns. Under additional stirring, the remaining liquid carrier, optionally a preservative agent and optionally a thickening agent are added to the milled formulation until a homogeneous suspension concentrate is formed. The required quantities of the components of the formulation are in each case determined with reference to the scale of the process which is being conducted.
as §1
(§2) This effect is further illustrated by reference to a further example wherein a stable suspension concentrate of phenothiazine (PTZ), containing 40 percent by weight of the PTZ component, was easily obtained using the above methodology. PTZ is a widely used inhibitor in (meth)acrylic acid and ester processes, but has low solubility in most solvents that are compatible with such processes. In most industrial cases, PTZ is supplied in its solid form and dissolved in the monomer to form a dilute solution for dosing into the monomer purification process. Thus, for example, in laboratory tests, PTZ had the following solubilities: acrylic acid (2.6 w/w %), methacrylic acid (2.4 w/w %), n-butyl acrylate (9.7 w/w %), methyl methacrylate (8.4 w/w %).

[3] = hazard classification; cited from earlier work
[4] = Batch tests: polymer content in refluxing styrene monomer; details: for Effect: batch test, styrene, 120° C., inhibitor or retarder
Experimental: The particular ethylenically unsaturated compound used in the tests was a vinyl aromatic monomer, specifically styrene monomer. The use of a vinyl aromatic monomer for this purpose is illustrative and is not intended to exclude other ethylenically unsaturated compounds from the scope of this invention.
Batch tests (the results of which are detailed in Table 2), and continuous flow tests were carried out in order to represent different types of processing conditions which can occur in the industrial processing of ethylenically unsaturated compounds. These tests compare the compositions of the present invention with compositions of the prior art.
The batch test was designed in order to show whether a test composition is an inhibitor or a retarder. The tests were carried out in styrene monomer refluxing under reduced pressure at 120° C. in order to reduce the presence of atmospheric oxygen to such low levels as can be expected in a commercial styrene monomer purification plant.
For the batch tests the vinyl aromatic monomer composition containing the test substances was heated to 120° C. and stirred under reduced pressure so that it refluxed at the test temperature. Samples were taken at intervals of time and tested for polymer content in order to assess the effectiveness of polymerisation control.

[5] = Laboratory solubility tests of PTZ in monomers; format: physicochemical
Text: as §2

[6] = Acrylic acid tube test (inhibition period); details: 25 ppm inhibitor, lean air (5% oxygen in nitrogen), 120° C., until first white precipitate
Experimental: In a typical test, a series of tubes containing acrylic acid and inhibitor was sparged with a lean air mixture (5% oxygen in nitrogen). These tubes were then heated at 120° C. until the first signs of polymerisation were detected (by means of the formation of white precipitate), and this was determined as the inhibition period.

Row | SMILES | Solubility in ethylbenzene [1] [w/w %] | Concentration in SC [2] [w/w %] | Dermal Toxicity [3] | Oral Toxicity [3] | Toxic by Inhalation [3] | further results
1 | CC(C)(C)C1=CC(=O)C(C(C)(C)C)=CC1=O [BQ, 2,5-di-tert-butyl-p-benzoquinone] | 11.9 | 45.0 | No | No | No | –
2 | ON(Cc1ccccc1)Cc1ccccc1 [DBHA, N,N-dibenzyl hydroxylamine] | 1.6 | 45.0 | No | No | No | –
3 | CCC(C)c1cc([N+](=O)[O-])cc([N+](=O)[O-])c1O (stereo not shown) [DNBP, 4,6-Dinitro-2-sec-butyl phenol] | – | – | Yes | – | – | Effect [4]: retarder; Effect ([4]; listed as Control 1): Retarder; Polymer (ppm) @ (time) 180 mins ([4]; styrene refluxing under reduced pressure at 120° C., 180 mins, component doses in ppm as in table): 4000 ppm
4 | CC(C)(C)c1cc(O)c(C(C)(C)C)cc1O [HQ, 2,5-di-tert-butyl hydroquinone] | 6.7 | 45.0 | – | – | – | –
5 | c1ccc2c(c1)Nc1ccccc1S2 [PTZ, phenothiazine] | – | – | – | – | – | PTZ content of stable suspension concentrate ([2]; stable suspension concentrate): 40 percent by weight; solubility in acrylic acid ([5]; acrylic acid): 2.6 w/w %; solubility in methacrylic acid ([5]; methacrylic acid): 2.4 w/w %; solubility in methyl methacrylate ([5]; methyl methacrylate): 8.4 w/w %; solubility in n-butyl acrylate ([5]; n-butyl acrylate): 9.7 w/w %; Inhibition Period [6]: 531 min
